Read-outs that look alike come from different tables or passages of the source.
What was measured:
[1] = Solvent screening for recrystallization (solubility of C9); format: physicochemical; details: for Hot to RT result: allowed to cool to RT; for RT to Cold result: cooled to 0° C.; for Hot Result: heated to approximately 45-50° C.
Protocol: 100 mg of C9 was placed in test tubes and solvent added and any change noted. Samples were then heated briefly with a heat gun (heating to approximately 45-50° C.), the solubility noted, allowed to cool to RT and solubility noted, then cooled to 0° C. and the solubility noted.

[2] = test system: AD patient fibroblasts AG11414; assay: Rescue of AD patient fibroblasts from BSO plus iron-induced oxidative stress, AG11414; format: cell-based; details: Homo sapiens, Fibroblast
Protocol: An initial screen was performed to identify the effectiveness of compounds for the amelioration of PD and AD. Test samples and solvent controls were tested for their ability to rescue PD and AD fibroblasts stressed by addition of L-buthionine-(S,R)-sulfoximine (BSO, a specific inhibitor of GSH synthetase) plus iron (e.g. iron citrate), in a similar manner as that described in Jauslin et al., Hum. Mol. Genet. 11(24):3055 (2002), Jauslin et al., FASEB J. 17:1972-4 (2003), and International Patent Application WO 2004/003565. This specific BSO-mediated cell death was prevented or ameliorated by administration of compounds described herein.
The AD experiments were performed as follows. PD experiments were performed in a similar manner; certain specific conditions are noted below in Table 1A.
MEM (a medium enriched in amino acids and vitamins) and Medium 199 (M199) with Earle's Balanced Salts (EBS), without phenol red, were purchased from Invitrogen. Fetal Calf Serum was obtained from Corning. […]
100 microliters of Calcein AM (1 microM) in PBS+Ca+Mg was then added to each well. […] After that time fluorescence (excitation/emission wavelengths of 485 nm and 525 nm, respectively) was read on a Spectramax fluorescence reader. Data were analyzed using standard four-parameter curve fit algorithms (XLFit or Prism) to determine the EC50 concentration for each compound.

[3] = Brain and plasma exposure of C9 in mice after oral dosing; format: in vivo; details: mouse, 300 mg/kg PO in sesame oil, C57BL/6 mice
Protocol: A 300 mg/kg dose of C9 was administered as a sesame oil solution via oral gavage to four C57BL/6 mice. Eight hours after compound administration, plasma and brain exposure were measured (Table 10).

[4] = 70% IPA/H2O, approx conc. 100 mg/mL
[5] = 80% EtOH, approx conc. 50 mg/mL
[6] = 80% EtOH, approx conc. 100 mg/mL
[7] = 95% EtOH, approx conc. 100 mg/mL

RT result [1, 4]: slightly | Hot to RT result [1, 4]: slightly soluble | RT to Cold result [1, 4]: slightly soluble- | Hot Result [1, 4]: mostly | RT result [1, 5]: partially | Hot to RT result [1, 5]: partially | RT to Cold result [1, 5]: slightly | Hot Result [1, 5]: melted | RT result [1, 6]: partially | Hot to RT result [1, 6]: partially soluble | RT to Cold result [1, 6]: slightly soluble | Hot Result [1, 6]: melted | RT result [1, 7]: partially | Hot to RT result [1, 7]: partially soluble | RT to Cold result [1, 7]: mostly insoluble | Hot Result [1, 7]: soluble | RT result ([1]; EtOH, approx conc. 100 mg/mL): partially | Hot to RT result ([1]; EtOH, approx conc. 100 mg/mL): slightly soluble | RT to Cold result ([1]; EtOH, approx conc. 100 mg/mL): partially soluble- | Hot Result ([1]; EtOH, approx conc. 100 mg/mL): soluble | RT result ([1]; IPA, approx conc. 100 mg/mL): soluble | Hot to RT result ([1]; IPA, approx conc. 100 mg/mL): soluble | RT to Cold result ([1]; IPA, approx conc. 100 mg/mL): partially soluble- | Hot Result ([1]; IPA, approx conc. 100 mg/mL): soluble | RT result ([1]; MeCN, approx conc. 100 mg/mL): soluble | Hot to RT result ([1]; MeCN, approx conc. 100 mg/mL): soluble | RT to Cold result ([1]; MeCN, approx conc. 100 mg/mL): mostly soluble- | Hot Result ([1]; MeCN, approx conc. 100 mg/mL): soluble | RT result ([1]; MeOH, approx conc. 100 mg/mL): slightly | Hot to RT result ([1]; MeOH, approx conc. 100 mg/mL): slightly soluble | RT to Cold result ([1]; MeOH, approx conc. 100 mg/mL): insoluble-long needles | Hot Result ([1]; MeOH, approx conc. 100 mg/mL): soluble | RT result ([1]; THF, approx conc. 100 mg/mL): soluble | Hot to RT result ([1]; THF, approx conc. 100 mg/mL): soluble | RT to Cold result ([1]; THF, approx conc. 100 mg/mL): soluble | Hot Result ([1]; THF, approx conc. 100 mg/mL): soluble | RT result ([1]; water, approx conc. 10 mg/mL): insoluble | Hot to RT result ([1]; water, approx conc. 10 mg/mL): insoluble | RT to Cold result ([1]; water, approx conc. 10 mg/mL): insoluble | Hot Result ([1]; water, approx conc. 10 mg/mL): insoluble | Kp at 8 h ([3]; brain and plasma, read-out: Brain:Plasma Ratio): 7 | concentration at 8 h ([3]; brain, read-out: C9 [Brain]): 27900 ng/g | concentration at 8 h ([3]; plasma, read-out: C9 [Plasma]): 3830 ng/mL
SMILES: CCCCCCCCCC1=C(C)C(=O)C(C)=C(C)C1=O [Compound C9, 2,3,5-trimethyl-6-nonylcyclohexa-2,5-diene-1,4-dione]
EC50 ([2]; Iron citrate (100 μM) + BSO (100 μM)): 11 nM | EC50 ([2]; Iron citrate (200 μM) + BSO (100 μM)): 23 nM

From patent US20230339835A1, “2,3,5-TRIMETHYL-6-NONYLCYCLOHEXA-2,5-DIENE-1,4-DIONE FOR SUPPRESSING AND TREATING ALPHA-SYNUCLEINOPATHIES, TAUOPATHIES, AND OTHER DISORDERS” (PTC THERAPEUTICS, INC., priority 2018, published 2023)
